# According to the kinase profiling compilation of Christmann-Franck et al. (2016):
# Legend:
# Assay in all cases: radiometric filter-binding kinase assay, Kinase HotSpot
# Conditions in all cases: compound 0.5 µM; ATP 10 µM
# STK3 (human) = STK3 (human) (UniProt Q13188)
# STK33 (human) = STK33 (human) (UniProt Q9BYT3)
# DYRK1A (human) = DYRK1A (human) (UniProt Q13627)
# DYRK3 (human) = DYRK3 (human) (UniProt O43781)
# [1] = target: JAK1 JH1 catalytic (human) (UniProt P23458)
# CHUK (human) = CHUK (human) (UniProt O15111)
# TGFBR1 (human) = TGFBR1 (human) (UniProt P36897)
# RPS6KA2 KD1 KD2 (human) = RPS6KA2 KD1 KD2 (human) (UniProt Q15349)
# TEK (human) = TEK (human) (UniProt Q02763)
# FLT1 (human) = FLT1 (human) (UniProt P17948)
# CDK2 CCNE1 (human) = CDK2 CCNE1 (human) (UniProt P24941+P24864)
# PAK1 (human) = PAK1 (human) (UniProt Q13153)
# BLK (human) = BLK (human) (UniProt P51451)
# FES (human) = FES (human) (UniProt P07332)
# RPS6KA1 KD1 KD2 (human) = RPS6KA1 KD1 KD2 (human) (UniProt Q15418)
# CDK7 CCNH MNAT1 (human) = CDK7 CCNH MNAT1 (human) (UniProt P50613+P51948+P51946)
# DYRK1B (human) = DYRK1B (human) (UniProt Q9Y463)
# MAPKAPK3 (human) = MAPKAPK3 (human) (UniProt Q16644)
# NTRK2 (human) = NTRK2 (human) (UniProt Q16620)
# BTK (human) = BTK (human) (UniProt Q06187)
# TSSK1B (human) = TSSK1B (human) (UniProt Q9BXA7)
# PHKG1 (human) = PHKG1 (human) (UniProt Q16816)
# ADRBK1 (human) = ADRBK1 (human) (UniProt P25098)
# CDK9 CCNK (human) = CDK9 CCNK (human) (UniProt O75909+P50750)
# MYLK (human) = MYLK (human) (UniProt Q15746)
# AKT3 (human) = AKT3 (human) (UniProt Q9Y243)
# NUAK2 (human) = NUAK2 (human) (UniProt Q9H093)
# PRKACA (human) = PRKACA (human) (UniProt P17612)
# TAOK3 (human) = TAOK3 (human) (UniProt Q9H2K8)
# KDR (human) = KDR (human) (UniProt P35968)
# MARK1 (human) = MARK1 (human) (UniProt Q9P0L2)
# CSF1R (human) = CSF1R (human) (UniProt P07333)
# CAMK1D (human) = CAMK1D (human) (UniProt Q8IU85)
# MAPK8 (human) = MAPK8 (human) (UniProt P45983)
# TXK (human) = TXK (human) (UniProt P42681)
# FGFR2 (human) = FGFR2 (human) (UniProt P21802)
# EPHA2 (human) = EPHA2 (human) (UniProt P29317)
# DAPK3 (human) = DAPK3 (human) (UniProt O43293)
# NEK4 (human) = NEK4 (human) (UniProt P51957)
# ADRBK2 (human) = ADRBK2 (human) (UniProt P35626)
# NEK2 (human) = NEK2 (human) (UniProt P51955)
# DAPK3 (human), sequence (O43293 whole entry, looked up): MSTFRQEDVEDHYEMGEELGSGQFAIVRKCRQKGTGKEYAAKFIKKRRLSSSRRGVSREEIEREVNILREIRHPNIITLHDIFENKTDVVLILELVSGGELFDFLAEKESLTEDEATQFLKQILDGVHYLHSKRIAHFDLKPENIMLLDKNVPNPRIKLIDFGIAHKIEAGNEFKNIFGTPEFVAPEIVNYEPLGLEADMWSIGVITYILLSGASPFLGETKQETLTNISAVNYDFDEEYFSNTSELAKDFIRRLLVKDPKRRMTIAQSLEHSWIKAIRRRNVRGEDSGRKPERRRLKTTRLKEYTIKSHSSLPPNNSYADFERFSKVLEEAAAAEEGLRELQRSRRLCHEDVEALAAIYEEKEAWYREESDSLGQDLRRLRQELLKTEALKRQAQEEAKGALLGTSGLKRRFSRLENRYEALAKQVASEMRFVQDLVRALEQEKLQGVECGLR
# NEK4 (human), sequence (P51957 whole entry, looked up): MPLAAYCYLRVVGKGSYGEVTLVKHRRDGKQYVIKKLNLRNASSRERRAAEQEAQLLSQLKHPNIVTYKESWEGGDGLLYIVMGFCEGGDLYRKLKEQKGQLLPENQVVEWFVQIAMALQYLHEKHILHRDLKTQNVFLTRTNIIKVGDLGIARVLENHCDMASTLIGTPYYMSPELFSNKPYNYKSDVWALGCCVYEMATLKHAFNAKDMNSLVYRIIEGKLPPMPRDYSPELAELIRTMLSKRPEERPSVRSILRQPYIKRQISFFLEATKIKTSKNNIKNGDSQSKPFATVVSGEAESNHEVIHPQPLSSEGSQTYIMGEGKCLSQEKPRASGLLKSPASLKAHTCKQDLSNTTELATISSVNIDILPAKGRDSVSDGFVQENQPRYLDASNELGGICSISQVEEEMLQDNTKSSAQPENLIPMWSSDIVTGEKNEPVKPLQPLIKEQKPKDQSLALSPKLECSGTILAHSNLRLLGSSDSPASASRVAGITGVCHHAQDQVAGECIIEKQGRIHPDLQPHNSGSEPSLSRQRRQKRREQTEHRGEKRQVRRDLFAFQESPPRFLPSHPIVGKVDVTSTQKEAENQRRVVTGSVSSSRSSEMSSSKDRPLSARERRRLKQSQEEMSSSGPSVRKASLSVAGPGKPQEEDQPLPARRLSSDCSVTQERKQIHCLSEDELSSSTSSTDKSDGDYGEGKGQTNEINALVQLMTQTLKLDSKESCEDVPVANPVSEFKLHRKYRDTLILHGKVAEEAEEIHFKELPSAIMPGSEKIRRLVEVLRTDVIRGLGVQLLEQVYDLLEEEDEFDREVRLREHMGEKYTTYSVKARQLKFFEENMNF
# BTK (human), sequence (Q06187 whole entry, looked up): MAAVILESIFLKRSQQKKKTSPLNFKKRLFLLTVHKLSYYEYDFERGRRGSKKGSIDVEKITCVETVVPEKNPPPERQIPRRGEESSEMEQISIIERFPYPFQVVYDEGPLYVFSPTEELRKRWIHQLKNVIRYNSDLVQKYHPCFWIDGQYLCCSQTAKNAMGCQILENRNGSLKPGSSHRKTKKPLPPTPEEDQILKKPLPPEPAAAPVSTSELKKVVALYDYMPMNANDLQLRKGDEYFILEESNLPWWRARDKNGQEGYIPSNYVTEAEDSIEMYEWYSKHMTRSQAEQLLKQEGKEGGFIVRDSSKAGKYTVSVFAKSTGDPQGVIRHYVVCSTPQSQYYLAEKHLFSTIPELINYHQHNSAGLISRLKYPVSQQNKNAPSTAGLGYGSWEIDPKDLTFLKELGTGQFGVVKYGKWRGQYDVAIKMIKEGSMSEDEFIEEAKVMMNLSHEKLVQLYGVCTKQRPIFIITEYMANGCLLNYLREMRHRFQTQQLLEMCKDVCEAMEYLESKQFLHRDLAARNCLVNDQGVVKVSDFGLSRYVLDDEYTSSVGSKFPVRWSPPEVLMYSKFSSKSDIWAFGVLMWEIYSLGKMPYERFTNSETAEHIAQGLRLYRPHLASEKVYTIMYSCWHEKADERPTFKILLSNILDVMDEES
# AKT3 (human), sequence (Q9Y243 whole entry, looked up): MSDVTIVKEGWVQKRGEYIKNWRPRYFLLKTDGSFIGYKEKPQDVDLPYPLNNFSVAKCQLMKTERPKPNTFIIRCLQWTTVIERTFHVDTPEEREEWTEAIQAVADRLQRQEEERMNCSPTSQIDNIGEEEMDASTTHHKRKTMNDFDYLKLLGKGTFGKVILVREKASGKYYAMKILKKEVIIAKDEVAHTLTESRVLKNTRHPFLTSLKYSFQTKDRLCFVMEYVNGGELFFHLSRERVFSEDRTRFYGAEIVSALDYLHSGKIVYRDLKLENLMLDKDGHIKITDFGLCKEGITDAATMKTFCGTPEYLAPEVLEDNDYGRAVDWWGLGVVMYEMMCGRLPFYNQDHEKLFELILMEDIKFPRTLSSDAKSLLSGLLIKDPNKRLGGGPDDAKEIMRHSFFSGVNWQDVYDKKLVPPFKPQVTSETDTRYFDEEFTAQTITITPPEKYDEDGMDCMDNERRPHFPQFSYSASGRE
# FGFR2 (human), sequence (P21802 whole entry, looked up): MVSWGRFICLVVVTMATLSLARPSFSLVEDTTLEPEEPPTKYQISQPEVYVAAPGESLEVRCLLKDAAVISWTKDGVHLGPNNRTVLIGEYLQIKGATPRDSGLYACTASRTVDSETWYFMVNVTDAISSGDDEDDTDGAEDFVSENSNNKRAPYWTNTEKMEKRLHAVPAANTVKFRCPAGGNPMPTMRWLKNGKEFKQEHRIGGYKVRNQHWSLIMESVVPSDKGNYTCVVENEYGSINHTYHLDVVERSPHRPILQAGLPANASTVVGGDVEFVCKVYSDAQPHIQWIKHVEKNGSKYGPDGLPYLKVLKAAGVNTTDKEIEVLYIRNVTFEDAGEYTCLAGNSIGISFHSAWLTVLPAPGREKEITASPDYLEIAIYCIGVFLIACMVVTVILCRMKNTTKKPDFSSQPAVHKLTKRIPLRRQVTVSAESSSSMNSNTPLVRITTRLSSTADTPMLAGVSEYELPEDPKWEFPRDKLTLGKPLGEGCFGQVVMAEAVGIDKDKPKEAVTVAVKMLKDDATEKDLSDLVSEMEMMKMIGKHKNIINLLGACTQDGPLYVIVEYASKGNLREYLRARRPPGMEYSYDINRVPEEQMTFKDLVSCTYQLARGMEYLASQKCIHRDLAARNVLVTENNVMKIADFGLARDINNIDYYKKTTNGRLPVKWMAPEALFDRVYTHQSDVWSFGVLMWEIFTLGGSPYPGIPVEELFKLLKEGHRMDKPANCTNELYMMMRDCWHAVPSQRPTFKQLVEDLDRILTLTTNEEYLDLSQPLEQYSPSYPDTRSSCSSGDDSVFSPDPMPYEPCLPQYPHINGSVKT
# MARK1 (human), sequence (Q9P0L2 whole entry, looked up): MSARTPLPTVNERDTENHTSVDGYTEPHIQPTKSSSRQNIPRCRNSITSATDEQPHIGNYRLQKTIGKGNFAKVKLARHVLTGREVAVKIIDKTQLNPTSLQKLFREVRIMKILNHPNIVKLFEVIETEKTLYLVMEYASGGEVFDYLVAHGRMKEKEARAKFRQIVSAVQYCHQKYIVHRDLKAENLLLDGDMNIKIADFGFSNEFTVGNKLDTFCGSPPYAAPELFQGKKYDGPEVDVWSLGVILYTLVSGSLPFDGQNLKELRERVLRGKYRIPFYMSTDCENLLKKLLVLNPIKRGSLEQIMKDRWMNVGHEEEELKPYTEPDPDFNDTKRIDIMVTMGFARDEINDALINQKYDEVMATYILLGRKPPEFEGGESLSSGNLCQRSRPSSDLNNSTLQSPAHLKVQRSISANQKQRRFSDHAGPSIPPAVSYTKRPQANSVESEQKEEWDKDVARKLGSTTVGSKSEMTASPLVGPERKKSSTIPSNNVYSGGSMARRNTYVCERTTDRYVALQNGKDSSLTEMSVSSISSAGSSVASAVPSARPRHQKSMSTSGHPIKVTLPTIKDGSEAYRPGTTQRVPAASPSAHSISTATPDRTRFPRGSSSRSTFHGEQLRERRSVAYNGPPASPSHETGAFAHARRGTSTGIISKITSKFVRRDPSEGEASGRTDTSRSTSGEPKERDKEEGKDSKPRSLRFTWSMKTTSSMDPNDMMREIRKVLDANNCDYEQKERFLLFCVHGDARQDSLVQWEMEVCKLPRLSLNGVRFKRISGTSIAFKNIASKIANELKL
# TSSK1B (human), sequence (Q9BXA7 whole entry, looked up): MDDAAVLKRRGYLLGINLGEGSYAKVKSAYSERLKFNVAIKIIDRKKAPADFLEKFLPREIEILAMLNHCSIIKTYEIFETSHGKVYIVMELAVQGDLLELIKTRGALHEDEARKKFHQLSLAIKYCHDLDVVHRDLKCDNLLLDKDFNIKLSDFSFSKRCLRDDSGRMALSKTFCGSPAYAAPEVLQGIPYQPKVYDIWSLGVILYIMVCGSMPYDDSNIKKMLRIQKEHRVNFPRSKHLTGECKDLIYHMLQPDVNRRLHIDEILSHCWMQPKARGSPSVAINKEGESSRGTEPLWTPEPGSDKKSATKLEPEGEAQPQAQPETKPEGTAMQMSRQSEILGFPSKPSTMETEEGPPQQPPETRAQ
# DYRK1B (human), sequence (Q9Y463 whole entry, looked up): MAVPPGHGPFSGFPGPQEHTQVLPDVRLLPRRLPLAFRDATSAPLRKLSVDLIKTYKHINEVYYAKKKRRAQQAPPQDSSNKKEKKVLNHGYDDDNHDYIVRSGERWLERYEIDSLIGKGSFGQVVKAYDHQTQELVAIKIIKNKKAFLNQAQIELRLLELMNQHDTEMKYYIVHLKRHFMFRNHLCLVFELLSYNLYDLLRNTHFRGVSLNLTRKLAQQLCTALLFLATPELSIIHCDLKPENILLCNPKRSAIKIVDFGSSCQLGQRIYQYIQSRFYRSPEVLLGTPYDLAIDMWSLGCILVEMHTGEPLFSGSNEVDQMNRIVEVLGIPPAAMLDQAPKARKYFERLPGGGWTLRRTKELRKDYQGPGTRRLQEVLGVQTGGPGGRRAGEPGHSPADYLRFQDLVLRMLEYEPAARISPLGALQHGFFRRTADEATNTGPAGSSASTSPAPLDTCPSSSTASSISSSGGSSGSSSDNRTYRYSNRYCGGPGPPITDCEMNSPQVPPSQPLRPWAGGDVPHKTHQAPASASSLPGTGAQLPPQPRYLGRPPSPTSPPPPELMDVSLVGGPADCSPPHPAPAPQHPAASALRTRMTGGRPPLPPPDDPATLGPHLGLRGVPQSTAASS
smiles,measurement,setting,value
O=S(=O)(NCCNC/C=C/c1ccc(Br)cc1)c1cccc2cnccc12,residual activity,STK3 (human),65.6%
same,residual activity,STK33 (human),79.5%
same,residual activity,DYRK1A (human),98.5%
same,residual activity,DYRK3 (human),83.5%
same,residual activity,[1],87.3%
same,residual activity,CHUK (human),104%
same,residual activity,TGFBR1 (human),97%
same,residual activity,RPS6KA2 KD1 KD2 (human),79.2%
same,residual activity,TEK (human),99.8%
same,residual activity,FLT1 (human),90.8%
same,residual activity,CDK2 CCNE1 (human),99.3%
same,residual activity,PAK1 (human),90.2%
same,residual activity,BLK (human),82.4%
same,residual activity,FES (human),115%
same,residual activity,RPS6KA1 KD1 KD2 (human),68.4%
same,residual activity,CDK7 CCNH MNAT1 (human),82.8%
same,residual activity,DYRK1B (human),95.3%
same,residual activity,MAPKAPK3 (human),97.8%
same,residual activity,NTRK2 (human),95.1%
same,residual activity,BTK (human),97.4%
same,residual activity,TSSK1B (human),93.5%
same,residual activity,PHKG1 (human),91.6%
same,residual activity,ADRBK1 (human),91.3%
same,residual activity,CDK9 CCNK (human),85.5%
same,residual activity,MYLK (human),90.8%
same,residual activity,AKT3 (human),69%
same,residual activity,NUAK2 (human),78.1%
same,residual activity,PRKACA (human),10.5%
same,residual activity,TAOK3 (human),95.4%
same,residual activity,KDR (human),79.1%
same,residual activity,MARK1 (human),91.2%
same,residual activity,CSF1R (human),97.7%
same,residual activity,CAMK1D (human),85.5%
same,residual activity,MAPK8 (human),92.7%
same,residual activity,TXK (human),86.8%
same,residual activity,FGFR2 (human),95.1%
same,residual activity,EPHA2 (human),101%
same,residual activity,DAPK3 (human),97.4%
same,residual activity,NEK4 (human),96.9%
same,residual activity,ADRBK2 (human),101%
same,residual activity,NEK2 (human),97.1%
COc1cc2ncnc(Nc3ccc(O)c(Br)c3)c2cc1OC,residual activity,STK3 (human),89.6%
same,residual activity,STK33 (human),80.7%
same,residual activity,DYRK1A (human),97.8%
same,residual activity,DYRK3 (human),95.3%
same,residual activity,[1],81.5%
same,residual activity,CHUK (human),107%
same,residual activity,TGFBR1 (human),97.4%
same,residual activity,RPS6KA2 KD1 KD2 (human),63.6%
same,residual activity,TEK (human),93.8%
same,residual activity,FLT1 (human),83.4%
same,residual activity,CDK2 CCNE1 (human),95.7%
same,residual activity,PAK1 (human),94.1%
same,residual activity,BLK (human),83.8%
same,residual activity,FES (human),94.9%
same,residual activity,RPS6KA1 KD1 KD2 (human),78.2%
same,residual activity,CDK7 CCNH MNAT1 (human),97%
same,residual activity,DYRK1B (human),91.3%
same,residual activity,MAPKAPK3 (human),96.2%
same,residual activity,NTRK2 (human),94.8%
same,residual activity,BTK (human),85.5%
same,residual activity,TSSK1B (human),84.7%
same,residual activity,PHKG1 (human),71.9%
same,residual activity,ADRBK1 (human),99%
same,residual activity,CDK9 CCNK (human),91.1%
same,residual activity,MYLK (human),84.6%
same,residual activity,AKT3 (human),101%
same,residual activity,NUAK2 (human),88.3%
same,residual activity,PRKACA (human),97.7%
same,residual activity,TAOK3 (human),98.8%
same,residual activity,KDR (human),69.6%
same,residual activity,MARK1 (human),94.8%
same,residual activity,CSF1R (human),95.3%
same,residual activity,CAMK1D (human),98.6%
same,residual activity,MAPK8 (human),101%
same,residual activity,TXK (human),83.3%
same,residual activity,FGFR2 (human),95.9%
same,residual activity,EPHA2 (human),80.6%
same,residual activity,DAPK3 (human),99.1%
same,residual activity,NEK4 (human),93.1%
same,residual activity,ADRBK2 (human),103%
same,residual activity,NEK2 (human),105%
O=C1NC(=O)c2c1c1c3ccccc3[nH]c1c1[nH]c3cc(Br)ccc3c21,residual activity,STK3 (human),55.8%
same,residual activity,STK33 (human),71.9%
same,residual activity,DYRK1A (human),84%
same,residual activity,DYRK3 (human),94.5%
same,residual activity,[1],110%
same,residual activity,CHUK (human),81.5%
same,residual activity,TGFBR1 (human),96.9%
same,residual activity,RPS6KA2 KD1 KD2 (human),37.9%
same,residual activity,TEK (human),93.8%
same,residual activity,FLT1 (human),56.5%
same,residual activity,CDK2 CCNE1 (human),74.9%
same,residual activity,PAK1 (human),87.8%
same,residual activity,BLK (human),83.9%
same,residual activity,FES (human),88.1%
same,residual activity,RPS6KA1 KD1 KD2 (human),58.4%
same,residual activity,CDK7 CCNH MNAT1 (human),93.1%
same,residual activity,DYRK1B (human),82.8%
same,residual activity,MAPKAPK3 (human),118%
same,residual activity,NTRK2 (human),68.1%
same,residual activity,BTK (human),74.8%
same,residual activity,TSSK1B (human),86.5%
same,residual activity,PHKG1 (human),40.7%
same,residual activity,ADRBK1 (human),97.6%
same,residual activity,CDK9 CCNK (human),82.7%
same,residual activity,MYLK (human),85.3%
same,residual activity,AKT3 (human),91.1%
same,residual activity,NUAK2 (human),84.5%
same,residual activity,PRKACA (human),103%
same,residual activity,TAOK3 (human),82.3%
same,residual activity,KDR (human),67.9%
same,residual activity,MARK1 (human),42%
same,residual activity,CSF1R (human),96%
same,residual activity,CAMK1D (human),92.2%
same,residual activity,MAPK8 (human),85.2%
same,residual activity,TXK (human),90.3%
same,residual activity,FGFR2 (human),98.4%
same,residual activity,EPHA2 (human),99.2%
same,residual activity,DAPK3 (human),62.9%
same,residual activity,NEK4 (human),89%
same,residual activity,ADRBK2 (human),95.2%
same,residual activity,NEK2 (human),92%
